We go through 6 compounds from US20260083864A1, “CONTRAST AGENTS FOR USE IN DIAGNOSTIC COMPUTED TOMOGRAPHY IMAGING” (Bayer Aktiengesellschaft, priority 2022, published 2026).

Data set [1] in a line: Water solubility in aqueous buffer. The protocol: The solid compounds were added stepwise to the buffer solution. More substance is added once all the suspended material is dissolved until an equilibrium between undissolved and dissolved substance is reached. The suspension was mixed using a shaker (Heidolph Reax 2000) and treated 5 min in an ultrasound bath (Bandelin, Sonorex Super RK255H).

Data set [2] in a line: Relaxivity measurements at 1.41 T in water. Format: physicochemical. The settings on record: 37° C., normalized to Gd. Here is the method: Relaxivity measurements at 1.41 T were performed using a MiniSpec mq60 spectrometer (Bruker Analytik, Karlsruhe, Germany) operating at a resonance frequency of 60 MHz and a temperature of 37° C. The T1 relaxation times were determined using the standard inversion recovery (IR) method with a fixed relaxation delay of at least 5×T1. The variable inversion time (TI) was calculated automatically by the standard software of the MiniSpec mq60 (8 steps). The T2 measurements were performed by using a Carr-Purcell-Meiboom-Gill (CPMG) pulse sequence, applying a relaxation delay of at least 5×T1.
Each relaxivity measurement was performed using three different Gd concentrations (3 concentrations between 0.05 and 2 mM). […] Human plasma preparation: For each experiment fresh blood was taken from a volunteer using 10 mL citrate-tubes (Sarstedt S-Monovette 02.1067.001, 10 mL, Citrate). The 10 mL citrate-tubes were carefully inverted 10 times to mix blood and anticoagulant and centrifuged for 15 min at 1811 g at RT (Eppendorf, Centrifuge 5810R).
(§1) The relaxivities n (where i=1, 2) were calculated based on the measured relaxation rates Ri in water and plasma: […]

The nature of data set [3]: Relaxivity measurements at 1.41 T in human plasma. In kind it is physicochemical. The settings on record: 37° C., normalized to Gd. The protocol: The T1 relaxation times were determined using the standard inversion recovery (IR) method with a fixed relaxation delay of at least 5×T1. The variable inversion time (TI) was calculated automatically by the standard software of the MiniSpec mq60 (8 steps). The T2 measurements were performed by using a Carr-Purcell-Meiboom-Gill (CPMG) pulse sequence, applying a relaxation delay of at least 5×T1.
Each relaxivity measurement was performed using three different Gd concentrations (3 concentrations between 0.05 and 2 mM).
as §1

Data set [4] is described as follows: Partition coefficient (log P butanol/buffer). Format: physicochemical.
For another data set, the target named is T1, OATP1B3 (Homo sapiens, UniProt Q9NPD5).
T1 sequence (Q9NPD5 1-702): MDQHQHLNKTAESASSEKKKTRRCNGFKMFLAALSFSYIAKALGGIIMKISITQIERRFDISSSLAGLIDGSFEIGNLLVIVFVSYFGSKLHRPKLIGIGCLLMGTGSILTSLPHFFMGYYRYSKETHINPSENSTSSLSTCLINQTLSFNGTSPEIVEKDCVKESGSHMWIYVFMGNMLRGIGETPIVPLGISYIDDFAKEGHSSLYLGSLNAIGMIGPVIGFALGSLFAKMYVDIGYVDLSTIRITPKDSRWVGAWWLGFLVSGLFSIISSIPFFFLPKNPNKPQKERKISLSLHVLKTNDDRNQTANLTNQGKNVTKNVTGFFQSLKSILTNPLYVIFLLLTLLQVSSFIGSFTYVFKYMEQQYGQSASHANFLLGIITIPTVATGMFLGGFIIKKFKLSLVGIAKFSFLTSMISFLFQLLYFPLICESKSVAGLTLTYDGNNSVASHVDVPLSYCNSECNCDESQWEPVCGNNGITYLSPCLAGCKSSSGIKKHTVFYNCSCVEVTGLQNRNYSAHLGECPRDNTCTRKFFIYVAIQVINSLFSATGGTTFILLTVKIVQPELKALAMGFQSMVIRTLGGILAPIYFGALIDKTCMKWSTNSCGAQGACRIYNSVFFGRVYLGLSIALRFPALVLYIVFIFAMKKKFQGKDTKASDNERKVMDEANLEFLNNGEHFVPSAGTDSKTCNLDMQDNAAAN
The data set can be described thus: Uptake into stable transfected OATP1B3 HEK 293 cells. Format: cell-based. The settings on record: for Inhibition Rifampicine: uptake into OATP1B3-HEK 293 cells. The protocol:
(§2) Cryopreserved cells were shortly thawed in water bath and diluted in 10 mL warm culture medium (37° C.). After medium change the cells were grown for 3d in a 25 cm^2 cell culture flask. After 3 to 5d the cells were transferred into 75 cm^2 flasks. […] All test items were prepared in transport buffer at a final concentration of 100 µM from stock solutions (180 to 500 mM concentration). The OATP1B3 HEK 293 cells were incubated with test solutions (test item in transport buffer 500 μL) for 40 min on a thermoshaker without shaking (PHMP, Fa. Grant Bio). Triplicates were performed for each test item. After incubation the cells were washed with 2 mL of cold PBS (+) buffer (Dulbeccos PBS+, Fa. Gibco). […] As a reference standard Gd-EOB-DTPA (gadoxetate) is used in the same well plate.

Data set [5] has as its system freshly isolated rat hepatocytes. The data set can be described thus: Uptake into freshly isolated rat hepatocytes. The settings on record: for Uptake rat hepatocytes: 100 μmol Gd/L, 10 min, 37° C., relative to RC1 (Gd-EOB-DTPA); for Inhibition Rifampicine: rat hepatocyte uptake, test item and Rifampicine 1:1, each 100 μM.
Procedure: After incubation the adherent hepatocytes were washed once with 37° C. Hepes carbonate transport buffer (500 μL/well). The test items and RC1 were prepared from stock solutions (180 to 500 mM concentration) in Hepes carbonate transport buffer at pH 7.4 to reach a final concentration of 100 μmol Gd/L. The specific uptake of the test item or RC1 into rat hepatocytes via OATP1B1 and OATP1B3 was challenged using a known OATP1B1/1B3 inhibitor (Rifampicine, Fa. Sigma R3501, test item and inhibitor 1:1 each 100 μM final concentration). The prepared rat hepatocyte plates were incubated with test solutions (500 μL/well) at 37° C. for 10 min using a thermoshaker (Fa. Grant Bio, PHMP). Triplicates were performed for each test item. After incubating the cells were washed once with cold PBS buffer (Fa. Gibco, Dulbeccos PBS (+)). After washing the intact hepatocytes were lysed by addition of 500 μL cold 0.01% Triton-X 100 in Millipore water for 1 h. […] As a reference standard RC1 is used in the same well plate. The hepatocyte uptake of the test compound is calculated relative to RC1 (resulting in the unit % of RC1).
Another data set has as its target T2, OATP1B1 (Homo sapiens, UniProt Q9Y6L6).
T2 sequence (Q9Y6L6 1-691): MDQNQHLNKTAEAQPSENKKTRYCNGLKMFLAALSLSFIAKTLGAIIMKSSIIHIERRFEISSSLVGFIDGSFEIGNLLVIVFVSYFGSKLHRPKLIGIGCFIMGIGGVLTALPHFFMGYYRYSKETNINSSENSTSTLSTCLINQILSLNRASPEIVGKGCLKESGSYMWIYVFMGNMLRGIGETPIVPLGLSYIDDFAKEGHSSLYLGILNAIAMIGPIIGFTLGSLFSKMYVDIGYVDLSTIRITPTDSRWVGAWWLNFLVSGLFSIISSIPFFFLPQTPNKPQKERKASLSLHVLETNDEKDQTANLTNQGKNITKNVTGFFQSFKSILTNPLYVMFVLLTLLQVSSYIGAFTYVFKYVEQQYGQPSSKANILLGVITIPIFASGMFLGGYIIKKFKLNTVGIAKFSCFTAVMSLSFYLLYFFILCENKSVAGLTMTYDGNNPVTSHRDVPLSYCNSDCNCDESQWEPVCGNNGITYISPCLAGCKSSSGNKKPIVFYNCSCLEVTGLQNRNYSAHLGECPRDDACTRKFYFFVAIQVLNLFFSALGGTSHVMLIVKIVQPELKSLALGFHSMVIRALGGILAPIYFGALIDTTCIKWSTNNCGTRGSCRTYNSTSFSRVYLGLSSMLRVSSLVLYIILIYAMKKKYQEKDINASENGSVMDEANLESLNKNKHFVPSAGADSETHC
As to the kind of experiment: Uptake into stable transfected OATP1B1 HEK 293 cells. In kind it is cell-based. The settings on record: for Inhibition Rifampicine: uptake into OATP1B1-HEK 293 cells. Here is the method:
as §2, with “M” for “µM”, “OATP1B1” for “OATP1B3”, “L)” for “μL)”

Where [6] appears, read: aqueous buffer 10 mM Tris-HCl, pH 7.4, 20° C.
The mark [7] stands for this setting: 1-butanol / 50 mM Tris-HCl, pH 7.4, room temperature.
The mark [8] stands for this setting: 40 min incubation, relative to RC1 (Gd-EOB-DTPA).

In the case of `CCOCCOCCOc1ccc(CCC[C@@H](C(=O)O)N2CCN(C(CO)C(=O)[O-])CCN(C(CO)C(=O)[O-])CCN(C(CO)C(=O)[O-])CC2)cc1.[Gd+3]` (mixture of isomers) [Example 21, gadolinium-2,2′,2″-{10-[(1S)-1-carboxy-4-{4-[2-(2-ethoxyethoxy)ethoxy]phenyl}butyl]-1,4,7,10-tetraazacyclododecane-1,4,7-triyl}tris(3-hydroxypropanoate)], the Solubility (as a rule, how much of the substance goes into solution per volume) in data set [1] (setting [6]) is more than 368 mM. Besides, the r1 water in data set [2] is 5.4 L/mmol/s. The compound further had a r1 human plasma in data set [3] of 8.5 L/mmol/s. The “Log P (partition coefficient butanol/buffer)” value in data set [4] (setting [7]) is given as −1.03. In addition, the “Inhibition Rifampicine” value at OATP1B3 is given as 94 % inhibition; in data set [5], 91 % inhibition; at OATP1B1, 75 % inhibition. Moreover, the Uptake rat hepatocytes in data set [5] is recorded as 81 % of RC1.

In data set [1] (pH 7.4), `CCOCCOCCOc1ccc(CCC[C@@H](C(=O)O)N2CCN(C(CCO)C(=O)[O-])CCN(C(CCO)C(=O)[O-])CCN(C(CCO)C(=O)[O-])CC2)cc1.[Gd+3]` (mixture of isomers) [Example 36, gadolinium-2,2′-{4-[(1S)-1-carboxy-4-{4-[2-(2-ethoxyethoxy)ethoxy]phenyl}butyl]-10-[1-carboxylato-3-hydroxypropyl]-1,4,7,10-tetraazacyclododecane-1,7-diyl}bis(4-hydroxybutanoate)] yielded a Solubility of 85 mM. The r1 water in data set [2] is 6.1 L/mmol/s. This compound also returned a r1 human plasma in data set [3] of 8.5 L/mmol/s. In data set [4] (pH 7.4), the “Log P (partition coefficient butanol/buffer)” value was −1.08.

Compound `CCOCCOCCOc1ccc(CC(C(=O)O)N2CCN(CC(=O)[O-])CCN(C(C)C(=O)[O-])CCN(CC(=O)[O-])CC2)cc1.[Gd+3]` (single isomer, unassigned) [Example 5, gadolinium 2-[7-(1-carboxy-2-{4-[2-(2-ethoxyethoxy)ethoxy]phenyl}ethyl)-4,10-bis(carboxylatomethyl)-1,4,7,10-tetraazacyclododecan-1-yl]propanoate] yielded a Solubility in data set [1] (setting [6]) of more than 59 mM. In data set [2], this compound had a r1 water of 4.7 L/mmol/s. Also, in data set [3], the r1 human plasma amounted to 6.9 L/mmol/s. In addition, the “Log P (partition coefficient butanol/buffer)” value in data set [4] (setting [7]) is on record as −1.52. Also, in data set [5], the Uptake rat hepatocytes is recorded as 28 % of RC1 and the “Inhibition Rifampicine” value is recorded as 92 % inhibition.

In turn, `CCOCCOCCOCCOc1ccc(C[C@H](C(=O)O)N2CCN(CC(=O)[O-])CCN(CC(=O)[O-])CCN(CC(=O)[O-])CC2)cc1.[Gd+3]` [Example 12, gadolinium 2,2′,2″-{10-[(1R)-1-carboxy-2-(4-{2-[2-(2-ethoxyethoxy)ethoxy]ethoxy}phenyl)ethyl]-1,4,7,10-tetraazacyclododecane-1,4,7-triyl}triacetate] registered a r1 water in data set [2] of 4.3 L/mmol/s. Besides, in data set [3], the r1 human plasma was 6.6 L/mmol/s. The “Log P (partition coefficient butanol/buffer)” value in data set [4] (setting [7]) is given as −1.68. Besides, the “Uptake into OATP1B3-HEK 293 cells” value at OATP1B3 (setting [8]) is listed as 24 % of RC1. Also, the “Inhibition Rifampicine” value is given as 87 % inhibition at OATP1B3, 97 % inhibition in data set [5] and 0 % inhibition at OATP1B1. For the same compound, the Uptake rat hepatocytes in data set [5] was 53 % of RC1. Further, on OATP1B1 (setting [8]), the “Uptake into OATP1B1-HEK 293 cells” value was 86 % of RC1.

As to `CCOCCOCCOc1ccc(CCC[C@@H](C(=O)O)N2CCN([C@@H](CO)C(=O)[O-])CCN([C@H](CO)C(=O)[O-])CCN([C@@H](CO)C(=O)[O-])CC2)cc1.[Gd+3]` [Example 35, gadolinium (2S,2'S)-2,2′-{4-[(1S)-1-carboxy-4-{4-[2-(2-ethoxyethoxy)ethoxy]phenyl}butyl]-10-[(1R)-1-carboxylato-2-hydroxyethyl]-1,4,7,10-tetraazacyclododecane-1,7-diyl}bis(3-hydroxypropanoate)], the Solubility in data set [1] (setting [6]) was more than 164 mM. Further, the r1 water in data set [2] was 5.6 L/mmol/s. Further, the r1 human plasma in data set [3] amounted to 8.6 L/mmol/s. Moreover, the “Log P (partition coefficient butanol/buffer)” value in data set [4] (setting [7]) is −1.02. In addition, the results for the “Inhibition Rifampicine” value on OATP1B3 and at OATP1B1 were 98 % inhibition and 87 % inhibition, respectively.

`CCOCCOCCOc1ccc(CC(C(=O)O)N2CCN(C(CCO)C(=O)[O-])CCN(C(CCO)C(=O)[O-])CCN(C(CCO)C(=O)[O-])CC2)cc1.[Gd+3]` (stereo not drawn) [Example 37, gadolinium-2,2′-{4-[1-carboxy-2-{4-[2-(2-ethoxyethoxy)ethoxy]phenyl}ethyl]-10-[1-carboxylato-3-hydroxypropyl]-1,4,7,10-tetraazacyclododecane-1,7-diyl}bis(4-hydroxybutanoate)] displayed a Solubility in data set [1] (setting [6]) of 18 mM. In data set [2], the r1 water stood at 6.4 L/mmol/s. Also, in data set [3], the r1 human plasma was found to be 8.4 L/mmol/s. Further, in data set [4] (setting [7]), the “Log P (partition coefficient butanol/buffer)” value was −1.16. In data set [5], the Uptake rat hepatocytes is recorded as 26 % of RC1 and the “Inhibition Rifampicine” value was 37 % inhibition.
